Experimental data taken from patent publication US20240166662A1, “THIOPHENE BASED COMPOUNDS AND USE THEREOF AS BCKDK INHIBITORS” (Ramino-Bio Ltd., priority 2021, published 2024).
Where two headings read alike, the source gives them in different places. One block for each compound: values may come before it.

Columns and labels:
BDK (MBP-BDK) [1] = experiment: Cell-free BDK activity assay (ADP-Glo kinase kit); type: biochemical; conditions: in-vitro
Description: (§1) Cell-free BDK activity assay was developed based on protocols and published work of David Chuang as described in Tso et al. 2014. Briefly, The main components of the enzymatic cell-free activity assay are the kinase-BDK (MBP-BDK), its 14 kDa synthetic substrate Lip-LBD-PhP, and ATP. The detection is being done with Promega ADP-Glo™ kinase kit. The assay is robust generating an assay window (AW)>5 and Z′−factor>0.5. The concentrations of all assay components were reduced relative to published concentrations and the assay was validated using known BDK inhibitors.
(§2) Constructs: a synthetic 14 KDa peptide that serves as a substrate for BDK instead of the multimeric BCKDH. This peptide, named LBD-PhP, is composed of the lipoyl binding domain (LBD) of the BCKDH E2 subunit connected by a linker to the phosphorylation peptide (PhP) of the E1α subunit. LBD-PhP is lipoylated in vitro using the E. Coli enzyme—lipoylate ligase (Lp1A) to achieve enhancement of BDK substrate phosphorylation. Additionally, a chimeric BDK in which the kinase is fused in its N-terminus to MBP, generating-MBP-BDK to increase BDK solubility and stability.
(§3) Reaction: The ADP detection is composed of the following steps:
(§4) Kinase reaction is performed by adding BDK, lip-LBD-PhP and ATP and incubating for 60 min at room temperature. This is done in solid white 384-well plates and the total volume of the reaction is 10 μl.
(§5) ADP-Glo reagent is added to terminate the kinase reaction and to deplete the remaining ATP and incubated for 40 min.
(§6) Kinase detection reagent is added for ADP detection: The ADP is converted to ATP and using a series of enzymatic reactions the newly synthesized ATP generates a luminescent signal which is proportional to the amount of the initial ADP formed by the kinase reaction. Luminescence is measured using a plate reader (Tecan Spark 20M plate reader).
(§7) In a typical experiment the AW and Z-factor are calculated from 12 repeats of positive control (100% activity) and 12 repeats of negative control (0% activity).
(§8) Positive control (100% activity)=maximal kinase activity with ATP and substrate. Negative control (0% activity)=minimal kinase activity with ATP alone (no substrate). AW: Average100%/Average0%. Z-factor: 1−((3*STDEV100%+3*STDEV0%)/(Average100%−Average0%)).
(§9) Each 384-well plate-based screening experiment includes serial dilutions of 14 different compounds and the following controls: 1. A known BDK tool compound BT2 (for allosteric inhibitors)/Radicicol (for ATP-pocket inhibitors) 2. Twelve repeats of positive and negative controls. Analyzed compounds and tool compounds are serially diluted, 8-point half log from 50 μM to 16 nM in triplicates. The positive and negative controls are used to calculate AW and Z-factor and to enable data normalization.

BCKDH = conditions: WT and iMSUD patient derived lymphoblasts; cited from earlier work
BDK (MBP-BDK) [2] = target: T1, BDK (MBP-BDK) (UniProt Q00972); experiment: Cell-free BDK activity assay (ADP-Glo kinase kit); type: biochemical; conditions: cell-free BDK activity assay
T1 construct: IC50 BDK; other: cell-free BDK activity assay; other: in-vitro; assay not specified
Description: as §1, §2, §3, §4, §5, §6, §7, §8, §9

BDK [3] = target: T2, BDK (Homo sapiens, UniProt O14874); experiment: BDK inhibitory activity in cell culture (human lymphoblasts); type: cell-based
T2 construct: endogenous in cells; host or cells: human lymphoblasts

[4] = Plasma protein binding (mouse); type: in vitro ADME
Description: (§10) Various pharmacokinetic parameters of exemplary compounds of the invention have been established in-vivo and are presented in Table 2 below.

[5] = Plasma protein binding (human); type: in vitro ADME
Description: as §10

[6] = Pharmacokinetic parameters in-vivo (IV, IP, PO); conditions: for AUC: read-out: Exposure (AUC); for bioavailability: read-out: Oral bioavailability (F); for Vd: read-out: Volume of distribution (Vd)
Description: as §10

BDK [7] = target: T2, BDK; experiment: Cell-based ELISA of BDK activity (E1α phosphorylation level) in WT and iMSUD patient derived lymphoblasts; conditions: WT and mutant lymphoblasts derived from iMSUD patients
Description: Accordingly, the inventors performed cell studies in order to test the efficacy of the exemplary compounds of the invention on the BCKDH E1α subunit phosphorylation level, as it is BDK substrate in WT and iMSUD lymphoblasts and fibroblasts. Efficacy of the tested compounds RMO-1154 and RMO-800 in 2 MSUD lymphoblasts lines has been determined using cell-based ELISA to quantify BDK activity in treated cells as monitored by the phosphorylation level of BDK substrate, E1α. Healthy donor cells and BT2 (commercially available BDK inhibitor) have been used as positive controls.

[8] = tested on: BCKA (KIV, KIC, KMV) plasma concentration; experiment: In-vivo BCKA plasma concentration in WT mice by LC-MS; conditions: for reduction of BCKA (such as KIC and/or KMV) plasma concentrations: 3 single doses a day for 7 days, day 8, WT mice
Description: An alternative assay for assessment of BCKDH activity comprises measuring of BCKAs blood (e.g. plasma) concentration within the subject. BCKAs (such as a-keto isovalerate (abbreviated as KIV), sodium a-keto isocaproate (abbreviated as KIC), sodium a-keto β-methylvalerate (abbreviated as KMV)) are downstream metabolites of BCAAs, and the substrates of BCKDH complex, and are considered to be reliable and sensitive biomarkers for BDK inhibition and BCKDH complex activity enhancement.
BCKA blood concentration of a subject can be determined by various analytical methods, such as by LC-MS.
The inventors performed an in-vivo study by administering an exemplary compound of the invention (RMO-1154) to 8-10 week-old […] WT mice (n=5). RMO-1154 has been administered (per os, 3 single doses a day every 8 hrs, for 7 days) at various single doses (10 mg/kg, 30 mg/kg, and 100 mg/kg). At day 8, KIV, KIC and KMV plasma concentration has been determined by LC-MS.

[9] = human lymphoblasts, read-out: IC50 lymphoblasts

Compound: O=C(O)c1cc2cscc2s1
BDK inhibitory activity in-vitro (in words) (BDK (MBP-BDK) [1]): significant BDK inhibitory activity

Compound: O=C(O)c1sc2cc(F)ccc2c1Cl [BT2F]
BCKDH activity (in words) (BCKDH): increase of the BCKDH activity

Compound: O=C(O)c1sc2cc(Cl)ccc2c1Cl [BT2]
BCKDH activity (in words) (BCKDH): increase of the BCKDH activity

Compound: CC(=O)Nc1nonc1NC(=O)c1sc2cc(Cl)ccc2c1Cl [BT3]
BCKDH activity (in words) (BCKDH): increase of the BCKDH activity

IC50 (BDK (MBP-BDK) [2]): 100 nM | IC50 (BDK [3]; [9]): 100 nM | fraction unbound [4]: 0.012 | fraction unbound [5]: 0.008 | AUC ([6]; ip, 3 mg/kg): 14700 ng·h/mL | bioavailability ([6]; ip, 3 mg/kg): 136% | AUC ([6]; iv, 1 mg/kg): 3580 ng·h/mL | Vd ([6]; iv, 1 mg/kg): 0.16 L/kg | AUC ([6]; po, 3 mg/kg): 12700 ng·h/mL | bioavailability ([6]; po, 3 mg/kg): 118% | BDK inhibitory activity (FIGS. 1A-1B, in words) (BDK [7]): BDK inhibitory activity
Compound: O=C(O)c1cc2c(F)c(F)sc2s1 [RMO-800, 4,5-difluorothieno[2,3-b]thiophene-2-carboxylic acid]

IC50 (BDK (MBP-BDK) [2]): 470 nM | IC50 (BDK [3]; [9]): 170 nM
Compound: O=C(O)c1sc2sc(F)cc2c1F [RMO-801, 2,4-difluorothieno[2,3-b]thiophene-5-carboxylic acid]

IC50 (BDK (MBP-BDK) [2]): 800 nM | IC50 (BDK [3]; [9]): 380 nM
Compound: O=C(O)c1cc2c(F)sc(F)c2s1 [RMO-1149, 4,6-difluorothieno[3,4-b]thiophene-2-carboxylic acid]

IC50 (BDK [3]; lymphoblasts cells, unit inferred): 2860 to 13600 nM
Compound: O=C(O)c1[se]c2cc(Cl)ccc2c1Cl [RMO-1152, 3,6-dichlorobenzo[b]selenophene-2-carboxylic acid]

IC50 (BDK (MBP-BDK) [2]): 490 nM | IC50 (BDK [3]; [9]): 290 nM
Compound: O=C(O)c1sc2sccc2c1F [RMO-1153, 4-fluorothieno[2,3-b]thiophene-5-carboxylic acid]

IC50 (BDK (MBP-BDK) [2]): 610 nM
Compound: O=C(O)c1cc2cc(F)sc2s1 [RMO-1153B, 5-fluorothieno[2,3-b]thiophene-2-carboxylic acid]

IC50 (BDK (MBP-BDK) [2]): 560 nM | IC50 (BDK [3]; [9]): 580 nM | fraction unbound [4]: 0.108 | fraction unbound [5]: 0.015 | AUC ([6]; ip, 3 mg/kg): 18000 ng·h/mL | bioavailability ([6]; ip, 3 mg/kg): 98% | AUC ([6]; iv, 1 mg/kg): 6130 ng·h/mL | Vd ([6]; iv, 1 mg/kg): 0.15 L/kg | AUC ([6]; po, 3 mg/kg): 19400 ng·h/mL | bioavailability ([6]; po, 3 mg/kg): 104% | BDK inhibitory activity (FIGS. 1A-1B, in words) (BDK [7]): BDK inhibitory activity
Compound: O=C(O)c1sc2cscc2c1F [RMO-1154, 3-fluorothieno[3,4-b]thiophene-2-carboxylic acid]
reduction of BCKA (such as KIC and/or KMV) plasma concentrations ([8]; 10 mg/kg per os): about 2 fold | reduction of BCKA (such as KIC and/or KMV) plasma concentrations ([8]; 30 mg/kg per os): 8-10 fold | reduction of BCKA (such as KIC and/or KMV) plasma concentrations ([8]; 100 mg/kg per os): 10-12 fold | in-vivo reduction of BCKA (KIV, KIC, KMV) concentration in plasma (FIG. 2, in words) ([8]; WT mice, day 8): dose dependent in-vivo reduction
